Data taken from paper PMC8842277, “Highly Antiproliferative Latonduine and Indolo[2,3-c]quinoline Derivatives: Complex Formation with Copper(II) Markedly Changes the Kinase Inhibitory Profile” (Journal of Medicinal Chemistry, 2022).
Values joined by “and” are separate entries in the source; they are usually repeats but may differ in a detail not shown here. Equal entries are not always repeated. Where two headings read alike, the source gives them in different places. One block for each molecule: values may come before it.

Columns and labels:
[1] = Proton dissociation constants by UV–vis titration; type: physicochemical; details: 30–70% (w/w) DMSO–water, 298 K, I = 0.10 M (KCl); for pKa: DMSO:water 30:70 (w/w) solvent mixture
Description: The protonation processes of HL^1nm and its morpholine counterpart HL^1 (Chart 3) and the solution stability of their copper(II) complexes (1nm and 1) were characterized by UV–vis spectrophotometry. […] Based on the characteristic changes in the UV–vis spectra for HL^1nm in the pH range 2–6 (Figure 3a), two relatively well-separated proton dissociation processes were observed and their pKa values were determined (Table 1).
(§1) An Agilent Carry 8454 diode array spectrophotometer was used to record the UV–visible (UV–vis) spectra in the interval 200–800 nm. The path length was 2 or 0.5 cm. Spectrophotometric titrations were performed on samples containing the proligands HL^1, HL^1nm, or their copper(II) complexes (1 and 1nm; see Chart 2) by a KOH solution in the presence of 0.1 M KCl in a DMSO:water 30:70 (w/w) mixture as a solvent at 25.0 ± 0.1 °C in the pH range from 2 to 11. […] An Orion 710A pH meter equipped with a Metrohm combined electrode (type 6.0234.100) and a Metrohm 665 Dosimat burette were used for the pH measurements and titrations. […] The average water ionization constant (pKw) is 14.52 ± 0.05, which corresponds well to the literature data.[103] Argon was passed over the solutions during the titrations. Proton dissociation constants (pKa) of the ligand, overall stability constants (log β) of the copper(II) complexes, and the individual spectra of the various species present in the solution were calculated by the computer program PSEQUAD.[104] β (MpLqHr) is defined for the general equilibrium pM + qL + rH MpLqHr as β (MpLqHr) = [MpLqHr]/[M]^p[L]^q[H]^r where M denotes the copper(II) ion and L the completely deprotonated ligand. The calculations were always made from the experimental titration data measured in the absence of any precipitate in the solution.

[2] = system: doxorubicin-sensitive Colo205 human colon adenocarcinoma cells; test: MTT antiproliferative assay; type: cell-based; details: for selectivity factor (SF) Colo205: IC50 MRC-5/IC50 Colo205; for IC50: MTT, 72 h
Description: (§2) The in vitro antiproliferative activity of the compounds was tested in doxorubicin-sensitive Colo205 and multidrug-resistant Colo320 human colon adenocarcinoma cell lines as well as in normal human embryonal lung fibroblast cells (MRC-5) by MTT assay.
(§3) Human colonic adenocarcinoma cell lines Colo 205 doxorubicin-sensitive (ATCC-CCL-222) and Colo 320/MDR-LRP multidrug resistant over-expressing ABCB1 (MDR1)-LRP (ATCC-CCL-220.1) were purchased from LGC Promochem, Teddington, UK. The cells were cultured in an RPMI 1640 medium supplemented with 10% heat-inactivated fetal bovine serum, 2 mM L-glutamine, 1 mM Na-pyruvate, and 10 mM HEPES. The semi-adherent human colon cancer cells were detached with Trypsin-Versene (EDTA) solution for 5 min at 37 °C. An MRC-5 human embryonal lung fibroblast cell line (ATCC CCL-171) was purchased from LGC Promochem, Teddington, UK. The cells were cultured in Eagle’s minimal essential medium (EMEM, containing 4.5 g L^–1 glucose) supplemented with a non-essential amino acid mixture, a selection of vitamins, and 10% heat-inactivated fetal bovine serum. The HCT-116 colon carcinoma cells and isogenic p53-knock-out subline were a gift of Prof. Bert Vogelstein from The Johns Hopkins Oncology Center. Cells were cultured in McCoy’s 5A medium supplemented with 10% heat-inactivated fetal bovine serum and 4 mM L-glutamine. All cell lines were incubated at 37 °C, in a 5% CO2, 95% air atmosphere.
(§4) MRC-5 non-cancerous human embryonic lung fibroblast and human colonic adeno-carcinoma cell lines (doxorubicin-sensitive Colo 205 and multidrug resistant Colo 320 colonic adenocarcinoma cells) were used to determine the effect of compounds on cell growth. The effects of increasing concentrations of compounds on cell growth were tested in 96-well flat-bottomed microtiter plates. The compounds were dissolved in DMSO and stock solutions of 10 mM were prepared. These were further diluted in the appropriate cell culture medium by twofold serial dilution starting from 100 or 10 μM for the compounds. The adherent human embryonal lung fibroblast cells were cultured in 96-well flat-bottomed microtiter plates using EMEM supplemented with 10% heat-inactivated fetal bovine serum. The density of the cells was adjusted to 1 × 10^4 cells in 100 μL per well, the cells were seeded for 24 h at 37 °C, 5% CO2, then the medium was removed from the plates containing the cells, and the dilutions of compounds previously made in a separate plate were added to the cells in 200 μL. In the case of the colonic adenocarcinoma cells, the twofold serial dilutions of compounds were prepared in 100 μL of RPMI 1640, horizontally. The semi-adherent colonic adenocarcinoma cells were treated with Trypsin-Versene (EDTA) solution. They were adjusted to a density of 1 × 10^4 cells in 100 μL of RPMI 1640 medium and were added to each well, with the exception of the medium control wells. The final volume of the wells containing compounds and cells was 200 μL. The culture plates were incubated at 37 °C for 72 h; at the end of the incubation period, 20 μL of MTT (thiazolyl blue tetrazolium bromide, Sigma) solution (from a stock solution of 5 mg mL^–1) was added to each well. After incubation at 37 °C for 4 h, 100 μL of sodium dodecyl sulfate (SDS) (Sigma) solution (10% in 0.01 M HCI) was added to each well and the plates were further incubated at 37 °C overnight. Cell growth was determined by measuring the optical density (OD) at 540/630 nm with a Multiscan EX ELISA reader (Thermo Labsystems, Cheshire, WA, USA). […] Curves were fitted by GraphPad Prism software[57] using the sigmoidal dose–response model (comparing variable and fixed slopes). The IC50 values were obtained from at least three independent experiments. Tests in adherent HCT-116 colon carcinoma cells and an isogenic p53-knock-out subline thereof were performed in a similar manner, with 1.5 × 10^3 cells seeded in 100 μL of McCoy’s 5A medium (Sigma-Aldrich) per well. […]

[3] = system: multidrug-resistant Colo320 human colon adenocarcinoma cells; test: MTT antiproliferative assay; type: cell-based; details: for selectivity factor (SF) Colo320: IC50 MRC-5/IC50 Colo320; for IC50: MTT, 72 h
Description: as §2, §3, §4

[4] = system: normal human embryonal lung fibroblast cells (MRC-5); test: MTT antiproliferative assay; type: cell-based; details: read-out: IC50 MRC-5 benign, mean
Description: as §2, §3, §4

[5] = Thermodynamic solubility, UV–vis of saturated solutions
Description: The concentration of the compounds was determined by UV–vis spectrophotometry using stock solutions of the compounds with a known concentration dissolved in pure DMSO and 50% (v/v) DMSO/buffered aqueous solution for the calibration.

[6] = Overall stability constants of copper(II) complexes by UV–vis titration; type: physicochemical; details: 30–70% (w/w) DMSO–water, 298 K
From the text: The tridentate coordination via the N,N,N donor set is assumed in [Cu(HL^1nm)]^2+ at such low pH. […] The deprotonation of the non-coordinating hydrazonic nitrogen is likely, and complex [Cu(L^1nm)]^+ is formed. […] However, the absorbance is decreased in the whole wavelength range due to precipitate formation. By the deconvolution of the recorded UV–vis spectra, overall stability constants for the complexes [Cu(HL^1nm)]^2+ and [Cu(L^1nm)]^+ were computed, and log β for [Cu(L^1nm)(OH)] was only estimated (Table 1). In the case of the morpholine hybrid, a somewhat different speciation was obtained as the presence of the pendant morpholine moiety had to be taken into consideration. Log β values for [CuH(HL^1)]^3+, [CuH(L^1)]^2+, and [Cu(L^1)]^+ were computed from the spectrophotometric titration data (Table 1). Since the molar absorbance spectra of [CuH(HL^1)]^3+ and [CuH(L^1)]^2+ complexes resemble those of [Cu(HL^1nm)]^2+ and [Cu(L^1nm)]^+ (Figure 4b), the same coordination modes are likely in these species in couples. […] Increasing the pH (pH > 5), the absorbance is decreased in the whole wavelength range, no isosbestic points are found (indicating the formation of some precipitate), while the λmax is increased. Formation of a mixed hydroxido species [CuH(L^1)(OH)]^+ is also possible. However, the deprotonation of the morpholinium group can take place as well (formation of [Cu(L^1)]^+) in this pH range. As these two processes are overlapping, the two species could not be well distinguished, and the obtained stability constant is quite uncertain.
as §1

[7] = system: Colo320 cells; test: Apoptosis assay, Annexin-V-FITC/PI flow cytometry; details: 3 h induction
Description: An apoptosis assay was performed by flow cytometry via the analysis of multidrug-resistant Colo320 cells stained with Annexin-V-FITC and propidium iodide (PI).
Colo320 cells were treated at the indicated concentration of the compounds. The dual parametric dot plots combining Annexin-V (FL1) and PI (FL3) fluorescence show the viable cell population in the lower left quadrant Annexin-V–/PI– (Q4), the early apoptotic cells in the lower right quadrant Annexin-V+/PI– (Q3), and the late apoptotic and necrotic cells in the upper right quadrant Annexin-V+/PI+ (Q2).
The assay was carried out for selected compounds using an Annexin V-FITC Apoptosis Detection Kit (cat. no. APOAF-50TST) from Sigma according to the manufacturer’s instructions. The concentration of the Colo320 cell suspension was adjusted to approximately 0.5 × 10^6 cells/mL in an RPMI 1640 medium, and the cell suspension was distributed in 1 mL of aliquots into a 24-well plate and then incubated overnight at 37 °C and 5% CO2. On the following day, the medium was removed and replaced by 1 mL of RPMI medium containing the compounds except the control samples. […] After the incubation period, the samples were washed with PBS and fresh RPMI 1640 medium was added to the samples. The cells were incubated overnight at 37 °C and 5% CO2. The next day, 200 μL of 0.25% Trypsin (Trypsin-Versen) was added to the samples until cells appeared detached followed by the addition of 400 μL of RPMI 1640 medium supplemented with 10% bovine serum. The cells were collected in Eppendorf tubes and centrifuged at 2000g for 2 min. The harvested cells were resuspended in fresh serum-free RPMI 1640 culture medium. After this step, the apoptosis assay was carried out according to the instructions of the manufacturer. The fluorescence was analyzed immediately using a ParTec CyFlow flow cytometer (Partec GmbH, Münster, Germany).
• Apoptosis and DNA binding studies […]

[8] = pH 5, 20 mM MES buffer, water, 298 K
[9] = pH 7.4, 20 mM HEPES, water, 298 K

SMILES: C(=NNC1=NCc2ccccc2-c2c1[nH]c1ccccc21)c1ccccn1.[Cl][Cu][Cl] [1nm]
pKa [Cu(HL^1nm)]^2+ [1]: 4.32
pKa [Cu(L^1nm)]^+ [1]: 7.09

SMILES: CC(=NNC1=NCc2ccccc2-c2c1[nH]c1ccc(Br)cc21)c1ccccn1.[Cl][Cu][Cl] [4nm]
selectivity factor (SF) Colo205 [2]: 2.29
IC50 [2]: 83 nM
selectivity factor (SF) Colo320 [3]: 0.54
IC50 [3]: 350 nM
IC50 ([4]; 72 h): 190 nM

SMILES: C(=NNc1nc2ccccc2c2c1[nH]c1ccccc12)c1ccccn1.[Cl][Cu][Cl] [5nm]
Thermodynamic solubility (S) [5, 8]: 134 µM
Thermodynamic solubility (S) [5, 9]: 5.7 µM

SMILES: Brc1ccc2[nH]c3c(NN=Cc4ccccn4)nc4ccccc4c3c2c1.[Cl][Cu][Cl] [6nm]
Thermodynamic solubility (S) [5, 8]: 8.9 µM
Thermodynamic solubility (S) [5, 9]: 3.1 µM

pKa ([1]; read-out: pKa1): 2.32 ± 0.01
pKa ([1]; read-out: pKa2): 4.75 ± 0.01
log β [Cu(HL^1nm)]^2+ ([6]; I = 0.10 M (KCl)): 8.33 and 8.33 ± 0.01
log β [Cu(L^1nm)]^+ ([6]; I = 0.10 M (KCl)): 4.01 and 4.01 ± 0.01
log β [Cu(L^1nm)(OH)] ([6]; only estimated): –3.1 ± 0.1
SMILES: C(=N\N=C1/NCc2ccccc2-c2c1[nH]c1ccccc21)/c1ccccn1 [HL^1nm]

IC50 ([2]; Homo sapiens, COLO 205): 91 nM
IC50 ([3]; Homo sapiens, COLO 320): 8190 nM
SMILES: C/C(=N\N=C1/NCc2ccccc2-c2c1[nH]c1ccc(Br)cc21)c1ccccn1 [HL^4nm]
selectivity factor (SF) Colo205 [2]: 1.22
selectivity factor (SF) Colo320 [3]: 0.01
IC50 ([4]; Homo sapiens, MRC5, 72 h): 111 nM

Thermodynamic solubility (S) [5, 8]: 1.1 µM
Thermodynamic solubility (S) [5, 9]: 0.3 µM
SMILES: C(=NN=c1[nH]c2ccccc2c2c1[nH]c1ccccc12)c1ccccn1 [HL^5nm]

SMILES: c1ccc2c(c1)Nc1c(ccc3ccccc13)S2 [M627, 12H-benzo[α]phenothiazine, reference compound]
Cell death % Q1 ([7]; 10 µM): 4.59%
Early apoptosis % Q3 ([7]; 10 µM): 12.4%
Late apoptosis and necrosis % Q2 ([7]; 10 µM): 31.5%
Cell death % Q1 ([7]; 20 µM): 7.85%
Early apoptosis % Q3 ([7]; 20 µM): 11.1%
Late apoptosis and necrosis % Q2 ([7]; 20 µM): 26.1%

SMILES: Brc1ccc2[nH]c3c(NN=Cc4ccc(CN5CCOCC5)cn4)nc4ccccc4c3c2c1.[Cl][Cu][Cl] [compound 6, CuCl2(HL^6)·1.5H2O]
Thermodynamic solubility (S) ([5]; pH 5): 6.6 µM
Thermodynamic solubility (S) ([5]; pH 7.4): 0.4 µM
selectivity factor (SF) Colo205 [2]: 0.20
IC50 [2]: 1090 nM
selectivity factor (SF) Colo320 [3]: 0.26
IC50 [3]: 851 nM
IC50 ([4]; 72 h): 221 nM

SMILES: CC(=NNc1nc2ccccc2c2c1[nH]c1ccccc12)c1ccc(CN2CCOCC2)cn1.[Cl][Cu][Cl] [compound 7, CuCl2(HL^7)·0.5H2O]
Thermodynamic solubility (S) ([5]; pH 5): 89.7 µM
Thermodynamic solubility (S) ([5]; pH 7.4): 38.3 µM
selectivity factor (SF) Colo205 [2]: 6.65
IC50 [2]: 98 nM
selectivity factor (SF) Colo320 [3]: 4.38
IC50 [3]: 149 nM
IC50 ([4]; 72 h): 652 nM

IC50 ([2]; Homo sapiens, COLO 205): 712 nM
IC50 ([3]; Homo sapiens, COLO 320): 5430 nM
SMILES: COc1cccc2c1C(=O)c1c(O)c3c(c(O)c1C2=O)C[C@@](O)(C(=O)CO)C[C@@H]3O[C@H]1C[C@H](N)[C@H](O)[C@H](C)O1 [doxorubicin, reference compound]
selectivity factor (SF) Colo205 [2]: 15.44
selectivity factor (SF) Colo320 [3]: 2.03
IC50 ([4]; Homo sapiens, MRC5, 72 h): 11000 nM
